Source: BindingDB's records for doi:10.1073/pnas.74.9.3805 (1977)
Several values for one entry are separate records, joined by “and”; a condition that tells them apart may be missing. Equal entries are not always repeated.

Molecular target: Gamma-aminobutyric acid receptor subunit alpha-1 (Rattus norvegicus, UniProt P62813)
Sequence (P62813 whole entry): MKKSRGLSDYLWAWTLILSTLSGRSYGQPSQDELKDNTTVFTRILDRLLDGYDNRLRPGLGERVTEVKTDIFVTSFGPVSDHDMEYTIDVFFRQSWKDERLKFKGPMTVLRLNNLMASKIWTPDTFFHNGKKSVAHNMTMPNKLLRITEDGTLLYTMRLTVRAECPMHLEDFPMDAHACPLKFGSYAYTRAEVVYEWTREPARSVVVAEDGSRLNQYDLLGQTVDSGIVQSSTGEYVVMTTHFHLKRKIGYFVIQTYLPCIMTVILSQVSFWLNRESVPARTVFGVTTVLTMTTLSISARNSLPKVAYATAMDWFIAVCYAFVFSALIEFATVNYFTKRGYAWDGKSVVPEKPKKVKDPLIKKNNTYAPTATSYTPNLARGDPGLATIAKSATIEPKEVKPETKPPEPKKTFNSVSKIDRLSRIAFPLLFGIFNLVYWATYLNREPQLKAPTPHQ

## O=C1CN=C(c2ccccc2Cl)c2cc([N+](=O)[O-])ccc2N1 [5-(2-chlorophenyl)-7-nitro-1,3-dihydro-2H-1,4-benzodiazepin-2-one]
  Ki: 5.08 µM and 2.9 µM and 7.9 µM
